Source: patent US12054510B2, “2′ and/or 5′ amino-acid ester phosphoramidate 3′-deoxy adenosine derivatives as anti-cancer compounds” (Nucana plc, priority 2014, dated 2024)

Tests used:
Assay type in all cases: cell-based
[1] = system: leukaemic stem cell (LSC) compartment within the KG1a cell line; test: Immunophenotypic identification of the leukaemic stem cell compartment; details: 72 h; for targeting of LSCs (LSC as percentage of all viable cells left in culture): FIG. 2-4; for preferential targeting of LSCs compared with the parent nucleoside: compound A at 1 mM and above
Procedure: KG1a cells were cultured for 72 h in the presence of a wide range of concentrations of each compound assayed. Cells were then harvested and labelled with a cocktail of anti-lineage antibodies (PE-cy7), anti-CD34 (FITC), anti-CD38 (PE) and anti-CD123 (PERCP cy5). The sub-population expressing a LSC phenotype were subsequently identified and were expressed as a percentage of all viable cells left in the culture. The percentages of stem cells remaining were then plotted on a dose-response graph and the effects of the compounds were compared with each other, and with the parent nucleoside.
The data obtained in these experiments were evaluated using one way ANOVA. All data was confirmed as Gaussian or a Gaussian approximation using the omnibus K2 test. LD50 values were calculated from the non-linear regression and line of best-fit analysis of the sigmoidal dose-response curves. All statistical analyses were performed using Graphpad Prism 6.0 software (Graphpad Software Inc., San Diego, CA).

CCRF-CEM = test: CellTiterGlo cell viability assay, initial screening
Procedure: (§1) In vitro viability assays were performed to assess the effects of compounds on cell viability in 7 selected cell lines over 72 hr using the CellTiterGlo (CTG, Promega-G7573) assay. The tests were performed in duplicates with treatment of compounds at 9 points, 3.16 folds titration in 96 well plates over ˜72 hr. The compound starting concentrations were […]. Cell viability assay using CellTiterGlo in 96-well plate were performed. The compound treatment was 72 hrs, under standard growth conditions, and in duplicate. Compounds were dissolved to 40 mM with thawed […]. Compounds were serially diluted at 3.16 fold in thawed DMSO, and warmed to 37° C. before being dissolved in media (2 μl+200 μl). After compounds were dissolved in media (media was also warmed to 37° C.). Media containing compounds were warmed to 37° C. in incubator and then compounds in media were added to cell plates (50 μl+50 μl), in duplicates. The compounds final concentrations were from […] to 19.9 nM. All compound solubilities were checked and recorded again, then the plates were transferred to CO2 tissue culture incubator immediately and incubated for 3 days. DMSO final concentration is 0.5%.

HL-60 = test: as above; details: for IC50: Homo sapiens, HL-60, 72 h, read-out: IC50 (relative IC50)
Procedure: as §1

HepG2 = test: as above; details: for M.I. %: maximum percentage inhibition of cell viability: HepG2, 72 hr, Table II
Procedure: as §1

K562 = test: as above; details: 72 hr, Table II
Procedure: as §1

KG-1 = test: as above
Procedure: as §1

MCF-7 = test: as above; details: MCF-7; 72 hr; Table II
Procedure: as §1

MOLT-4 = test: as above
Procedure: as §1

| SMILES | targeting of LSCs (LSC as percentage of all viable cells left in culture) [1] | preferential targeting of LSCs compared with the parent nucleoside [1] | M.I. %: maximum percentage inhibition of cell viability (HepG2) | M.I. %: maximum percentage inhibition of cell viability (K562) | M.I. %: maximum percentage inhibition of cell viability (MCF-7) | M.I. %: maximum percentage inhibition of cell viability (CCRF-CEM; CCRF-CEM, 72 hr, Table II) | M.I. %: maximum percentage inhibition of cell viability (HL-60; HL-60, 72 hr, Table II) | M.I. %: maximum percentage inhibition of cell viability (KG-1; KG-1, 72 hr, Table II) | M.I. %: maximum percentage inhibition of cell viability (MOLT-4; MOLT-4, 72 hr, Table II) | also measured |
| --- | --- | --- | --- | --- | --- | --- | --- | --- | --- | --- |
| C[C@H](NP(=O)(OC[C@@H]1C[C@@H](O)[C@H](n2cnc3c(N)nc(F)nc32)O1)Oc1ccccc1)C(=O)OCc1ccccc1 (mixture of isomers) [P, (2S)-benzyl 2-(((((2S,4R,5R)-5-(6-amino-2-fluoro-9H-purin-9-yl)-4-hydroxytetrahydrofuran-2-yl)methoxy)(phenoxy)phosphoryl)amino)propanoate] | preferential targeting of LSCs | significantly improved when compared with the parental nucleoside |  |  |  |  |  |  |  |  |
| C[C@H](NP(=O)(N[C@@H](C)C(=O)OCc1ccccc1)OC[C@@H]1CC(O)[C@H](n2cnc3c(N)ncnc32)O1)C(=O)OCc1ccccc1 (stereo in doubt) [Compound J, Benzyl 2-[({[5-(6-amino-9H-purin-9-yl)-4-hydroxyoxolan-2-yl]methoxy}({[1-(benzyloxy)-1-oxopropan-2-yl]amino})phosphoryl)amino]propanoate] |  |  | 55% | 97% | 97% |  |  |  |  | M.I. %: maximum percentage inhibition of cell viability (CCRF-CEM; human, 72 h): 100%; M.I. %: maximum percentage inhibition of cell viability (HL-60; human, 72 h): 98%; M.I. %: maximum percentage inhibition of cell viability (KG-1; human, 72 h): 29%; M.I. %: maximum percentage inhibition of cell viability (MOLT-4; human, 72 h): 100% |
| C[C@H](NP(=O)(OC[C@@H]1C[C@H](O)[C@H](n2cnc3c(N)nc(F)nc32)O1)Oc1cccc2ccccc12)C(=O)OCc1ccccc1 (stereo partly drawn) [Compound O] | able to bring about a reduction in the proportion of LSCs | not significantly different to 2-F-Cordycepin |  |  |  |  |  |  |  |  |
| C[C@H](NP(=O)(Oc1cccc2ccccc12)O[C@@H]1C[C@@H](CO)O[C@H]1n1cnc2c(N)ncnc21)C(=O)OCc1ccccc1 (stereo partly drawn) [Compound I, (2S)-benzyl 2-(((((2R,3R,5S)-2-(6-amino-9H-purin-9-yl)-5-(hydroxymethyl)tetrahydro-furan-3-yl)oxy)(naphthalen-1-yloxy)phosphoryl)amino)propanoate] |  |  | 90% | 87% | 99% | 99% | 99% | 93% | 100% |  |
| CCCCCCOC(=O)[C@H](C)NP(=O)(OC[C@@H]1C[C@@H](O)[C@H](n2cnc3c(N)nc(F)nc32)O1)Oc1ccccc1 (stereo partly drawn) [R, (2S)-hexyl 2-(((((2S,4R,5R)-5-(6-amino-2-fluoro-9H-purin-9-yl)-4-hydroxytetrahydrofuran-2-yl)methoxy)(phenoxy)phosphoryl)amino)propanoate] | preferential targeting of LSCs | significantly improved when compared with the parental nucleoside |  |  |  |  |  |  |  |  |
| C[C@H](NP(=O)(Oc1ccccc1)O[C@@H]1C[C@@H](CO)O[C@H]1n1cnc2c(N)ncnc21)C(=O)OCc1ccccc1 (stereo partly drawn) [G, (2S)-benzyl 2-(((((2R,3R,5S)-2-(6-amino-9H-purin-9-yl)-5-(hydroxymethyl)tetrahydro-furan-3-yl)oxy)(phenoxy)phosphoryl)amino)propanoate] |  |  | 67% | 78% | 97% | 65% | 57% | 63% | 75% | IC50 (HL-60): 15 to 100 µM; IC50 (HepG2; Homo sapiens, HepG2, 72 h, read-out: IC50 (relative IC50)): 15 to 100 µM |
| C[C@H](NP(=O)(OC[C@@H]1C[C@@H](OP(=O)(N[C@@H](C)C(=O)OCc2ccccc2)Oc2ccccc2)[C@H](n2cnc3c(N)ncnc32)O1)Oc1ccccc1)C(=O)OCc1ccccc1 (stereo partly drawn) [H, Benzyl 2-(((((2S,4R,5R)-5-(6-amino-9H-purin-9-yl)-4-((((1-(benzyloxy)-1-oxopropan-2-yl)amino)(phenoxy)phosphoryl)oxy)tetrahydrofuran-2-yl)methoxy)(phenoxy)phosphoryl)-amino)propanoate] |  |  | 55% | 89% | 94% | 100% | 80% | 69% | 100% | IC50 (HL-60): 15 to 100 µM |
| CCCCCOC(=O)[C@H](CC(C)C)NP(=O)(OC[C@@H]1C[C@H](O)[C@H](n2cnc3c(N)nc(F)nc32)O1)Oc1cccc2ccccc12 (stereo partly drawn) [Compound Q, 2-Fluoro-3′-deoxyadenosine-5′-O-[1-naphthyhl(1-pentyloxy-L-leucinyl)]phosphate] | preferential targeting of LSCs | significantly improved when compared with the parental nucleoside |  |  |  |  |  |  |  |  |
